{"source": "paper PMC7400108", "about": "“Squalamine and Aminosterol Mimics Inhibit the Peptidoglycan Glycosyltransferase Activity of PBP1b” (Antibiotics, 2020)", "key": {"E. coli PBP1b [1]": {"molecular_target": "T1, E. coli PBP1b (Escherichia coli, UniProt P02919)", "T1 construct": "PBP1bγ(M46-N844) was purified as previously described; made in house", "T1 sequence (P02919 46-844)": "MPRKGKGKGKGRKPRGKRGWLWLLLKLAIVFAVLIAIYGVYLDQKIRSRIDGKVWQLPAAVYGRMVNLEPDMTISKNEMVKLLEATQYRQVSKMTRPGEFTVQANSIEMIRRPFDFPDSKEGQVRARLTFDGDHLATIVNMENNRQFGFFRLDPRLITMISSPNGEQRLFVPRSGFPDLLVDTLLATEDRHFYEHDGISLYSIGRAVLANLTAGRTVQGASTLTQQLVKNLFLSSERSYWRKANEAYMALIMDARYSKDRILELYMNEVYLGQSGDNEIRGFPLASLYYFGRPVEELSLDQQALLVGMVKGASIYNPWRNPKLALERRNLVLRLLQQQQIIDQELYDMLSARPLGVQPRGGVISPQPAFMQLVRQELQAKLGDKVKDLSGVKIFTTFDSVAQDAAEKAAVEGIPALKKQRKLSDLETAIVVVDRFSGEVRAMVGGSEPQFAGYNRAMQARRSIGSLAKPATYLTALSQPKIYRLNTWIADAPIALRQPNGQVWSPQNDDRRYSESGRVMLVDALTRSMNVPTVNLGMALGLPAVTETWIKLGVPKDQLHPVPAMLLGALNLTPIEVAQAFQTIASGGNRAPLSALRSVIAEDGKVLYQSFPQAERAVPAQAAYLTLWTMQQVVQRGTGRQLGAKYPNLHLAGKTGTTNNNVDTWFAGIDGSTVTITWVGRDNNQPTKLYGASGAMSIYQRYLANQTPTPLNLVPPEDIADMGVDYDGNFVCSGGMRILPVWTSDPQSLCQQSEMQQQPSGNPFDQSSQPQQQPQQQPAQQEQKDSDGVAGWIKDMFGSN", "test": "GTase inhibition assay: residual activity and IC50 of PBP1b (radioactive lipid II endpoint TLC assay, dansyl-lipid II continuous fluorescence assay)", "type": "biochemical", "settings": "for RA % (0.4 mM), residual GTase activity of PBP1b: compound 0.4 mM (400 µM); for RA % (0.4 mM), residual GTase activity of PBP1b / remaining activity at 800 µM / RA % (0.8 mM), residual GTase activity of PBP1b: compared to nontreated control; for remaining activity at 800 µM: read-out: RA % (0.8 mM), residual GTase activity of PBP1b, compound 0.8 mM (800 µM); for RA % (0.8 mM), residual GTase activity of PBP1b: compound 0.8 mM (800 µM)", "procedure": "The continuous fluorescence GTase activity assay of PBP1b was performed using dansyl lipid II as substrate as described.\nThe end-point assay, based on radiolabeled lipid II ([^14C]lipid II), was performed in 30 µL in the same conditions as the fluorescence assay using 4 µM [^14C]lipid II (0.06 µCi/nmol) instead of the fluorescent substrate and by omitting the muramidase. The reaction was incubated 15 min at 30 °C, stopped by heating at 80 °C for 10min and the products were separated by thin-layer chromatography (TLC) on silica gel plates in 2-propanol–ammonium hydroxide (25%)–H2O (6:3:1; v/v/v).\nThe GTase inhibition assay was carried out by measuring the residual activity (RA) of E. coli PBP1b in the presence of 400 and 800 μM compounds. All the assays were repeated at least three times. The IC50 values were determined for the active compounds using variable concentrations of inhibitor (0−1000 μM) by fitting the data using GraphPad Prism 6.0 software."}, "PBP1b": {"molecular_target": "T2, PBP1b (Escherichia coli, UniProt P02919)", "T2 construct": "PBP1bγ(M46-N844) was purified as previously described; made in house", "T2 sequence (P02919 46-844)": "as above", "test": "Fluorescence anisotropy competition assay, displacement of NBD-lipid II probe from PBP1b", "type": "binding", "settings": "NBD-lipid II 0.33 µM, PBP1b ~1 µM, serial dilutions of compound", "procedure": "(§1) FA assay was performed as previously described. Briefly, fixed concentrations of NBD-lipid II (0.33 µM) and PBP1b (~1 µM) in the 25 mM Tris–HCl pH 7.5, NaCl 0.1 M, CHAPS 0.14% w/v, were mixed with serial dilutions of the compounds in 384-well plates. Measurement were performed using an Infinite F Plex (Tecan, Männedorf, Switzerland) microplate reader equipped with polarization filters with excitation and emission wavelengths at 485 and 535 nm respectively. All the experiments were performed in triplicates. For direct binding evaluation of the compounds with the probe, the experiments were performed in the same condition in the absence of the protein. FA values in millianisotropy units (mA) were plotted as a function of compound concentrations in µM as previously described."}, "[2]": {"test": "Fluorescence anisotropy direct binding of compounds to the probe in the absence of the protein", "settings": "NBD-lipid II 0.33 µM, no protein", "procedure": "as §1"}, "E. coli PBP1b [3]": {"molecular_target": "T1, E. coli PBP1b", "test": "GTase inhibition assay: residual activity and IC50 of PBP1b (radioactive lipid II endpoint TLC assay, dansyl-lipid II continuous fluorescence assay)", "type": "biochemical", "settings": "up to 5 mM (1-5 mM), below CMC"}, "S. aureus": {"system": "S. aureus", "set-up": "method as in PMID 31063379", "settings": "cited from earlier work"}, "E. coli": {"system": "E. coli", "set-up": "method as in PMID 31063379", "settings": "cited from earlier work"}, "[4]": {"settings": "mean of three experiments ± s.d."}, "[5]": {"settings": "variable inhibitor concentrations 0-1000 µM, mean of three experiments ± s.d., read-out: IC50, GTase activity of PBP1b"}}, "note": "Several values for one entry are separate records, joined by “and”; a condition that tells them apart may be missing. Identical values can stand only once. Entries after “also recorded” stand apart in the source; their conditions may differ. Like-named read-outs stand apart in the source and are kept apart here."}
{"compound": "CC(C)CCC[C@@H](C)[C@H]1CCC2C3C[C@@H](NCCCNCCCCNCCCN)C4C[C@@H](O)CC[C@]4(C)C3CC[C@@]21C", "note": "(stereo partly drawn) [Compound 6, 6β-(spermine)-cholestan-3β-ol]", "values": [{"measurement": "IC50", "setting": "E. coli PBP1b [1]", "value": "111 ± 6", "unit": "µM"}, {"measurement": "RA % (0.4 mM), residual GTase activity of PBP1b", "setting": "E. coli PBP1b [1]; [4]", "value": "3.9 ± 0.1", "unit": "%"}, {"measurement": "remaining activity at 800 µM", "setting": "E. coli PBP1b [1]; [4]", "value": "0.8 ± 0.4", "unit": "%"}, {"measurement": "Competition with lipid II for binding to PBP1b (change of FA of the probe)", "setting": "PBP1b", "value": "able to compete; also recorded: decrease of the FA"}, {"measurement": "Direct interaction between fluorescent lipid II and compound (FA)", "setting": "[2]", "value": "no significant interaction"}]}
{"compound": "CC(C)CCC[C@@H](C)[C@H]1CCC2C3C(CC[C@@]21C)[C@@]1(C)CC[C@H](O)CC1=C[C@@H]3NCCCNCCCCNCCCN", "note": "(stereo partly drawn) [Compound 3]", "values": [{"measurement": "RA % (0.4 mM), residual GTase activity of PBP1b", "setting": "E. coli PBP1b [1]; [4]", "value": "16 ± 2", "unit": "%"}, {"measurement": "remaining activity at 800 µM", "setting": "E. coli PBP1b [1]; [4]", "value": "8.5 ± 3.1", "unit": "%"}, {"measurement": "IC50", "setting": "E. coli PBP1b [1]; [5]", "value": "220 ± 10", "unit": "µM"}]}
{"compound": "C[C@H](CCC(=O)NCCC[N+](C)(C)CCCS(=O)(=O)[O-])[C@H]1CCC2C3C(C[C@H](O)[C@@]21C)[C@@]1(C)CC[C@H](O)CC1C[C@H]3O", "note": "(stereo partly drawn) [CHAPS]", "values": [{"measurement": "Inhibition of PBP1b GTase activity (in words)", "setting": "E. coli PBP1b [3]", "value": "no inhibition"}]}
{"compound": "CC(C)CCCC(C)C1CCC2C3C(NCCCCN)C=C4CC(O)CCC4(C)C3CCC12C", "note": "(stereo not drawn) [Compound 2]", "values": [{"measurement": "RA % (0.4 mM), residual GTase activity of PBP1b", "setting": "E. coli PBP1b [1]; [4]", "value": "1.2 ± 0.3", "unit": "%"}, {"measurement": "RA % (0.8 mM), residual GTase activity of PBP1b", "setting": "E. coli PBP1b [1]; [4]", "value": "0.3 ± 0.1", "unit": "%"}, {"measurement": "IC50", "setting": "E. coli PBP1b [1]; [5]", "value": "114 ± 6", "unit": "µM"}]}
{"compound": "CC(C)CCC[C@@H](C)[C@H]1CCC2C3C[C@@H](NCCCCN)C4C[C@@H](O)CC[C@]4(C)C3CC[C@@]21C", "note": "(stereo partly drawn) [Compound 5, 6β-(1,4-diaminobutane)-cholestan-3β-ol]", "values": [{"measurement": "RA % (0.4 mM), residual GTase activity of PBP1b", "setting": "E. coli PBP1b [1]; [4]", "value": "16 ± 1.4", "unit": "%"}, {"measurement": "remaining activity at 800 µM", "setting": "E. coli PBP1b [1]; [4]", "value": "3 ± 1", "unit": "%"}, {"measurement": "IC50", "setting": "E. coli PBP1b [1]; [5]", "value": "221 ± 26", "unit": "µM"}]}
{"compound": "C[C@H](NCCCCN)[C@H]1CCC2C3CCC4=C[C@@H](NCCCCN)CC[C@]4(C)C3CC[C@@]21C", "note": "(stereo partly drawn) [Compound 13]", "values": [{"measurement": "Inhibition of GTase activity of PBP1b (in words)", "setting": "E. coli PBP1b [1]; 0.8 mM compound, radioactive lipid II, endpoint TLC assay", "value": "inactive"}, {"measurement": "Inhibition of GTase activity of PBP1b (in words)", "setting": "E. coli PBP1b [1]; concentration not given", "value": "absence of activity"}, {"measurement": "remaining activity at 800 µM", "setting": "E. coli PBP1b [1]; [4]", "value": 100, "unit": "%"}]}
{"compound": "CC(C)CCCC(C)C1CCC2C3C(NCCCCN)C=C4CC(O)CCC4(C)C3CCC12C", "note": "(stereo not drawn) [Compound 9]", "values": [{"measurement": "RA % (0.8 mM), residual GTase activity of PBP1b", "setting": "E. coli PBP1b [1]; [4]", "value": "98% and 98 ± 1%"}, {"measurement": "Inhibition of GTase activity of PBP1b (in words)", "setting": "E. coli PBP1b [1]; concentration not given", "value": "almost inactive"}]}
{"compound": "CC(C)CCC[C@@H](C)[C@H]1CCC2C3C(CC[C@@]21C)[C@@]1(C)CC[C@H](O)CC1C[C@@H]3NCCCN", "note": "(stereo partly drawn) [Compound 4]", "values": [{"measurement": "RA % (0.4 mM), residual GTase activity of PBP1b", "setting": "E. coli PBP1b [1]; [4]", "value": "39 ± 2", "unit": "%"}, {"measurement": "remaining activity at 800 µM", "setting": "E. coli PBP1b [1]; [4]", "value": "4 ± 1", "unit": "%"}, {"measurement": "IC50", "setting": "E. coli PBP1b [1]; [5]", "value": "303 ± 15", "unit": "µM"}]}
{"compound": "C[C@]12CCC3c4ccc(O)cc4CCC3C1CC[C@@H]2NCCCCN", "note": "(stereo partly drawn) [Compound 15, (13S,17S)-17-((4-aminobutyl)amino)-13-methyl-7,8,9,11,12,13,14,15,16,17-decahydro-6H-cyclopenta[a]phenanthren-3-ol]", "values": [{"measurement": "Inhibition of GTase activity of PBP1b (in words)", "setting": "E. coli PBP1b [1]; concentration not given", "value": "absence of activity"}, {"measurement": "remaining activity at 800 µM", "setting": "E. coli PBP1b [1]; [4]", "value": "105 ± 3", "unit": "%"}, {"measurement": "Competition with lipid II for binding to PBP1b (change of FA of the probe)", "setting": "PBP1b", "value": "no effect; also recorded: does not affect the FA"}, {"measurement": "Direct interaction between fluorescent lipid II and compound (FA)", "setting": "[2]", "value": "no significant interaction"}]}
{"compound": "N1,N1’-((3S,7R,10R,13R,17R)-10,13-dimethyl-17-((R)-5-methylhexan-2-yl)-tetradecahydro-1H-cyclopenta[a]phenanthrene-3,7-diyl)bis(pentane-1,5-diamine) [Compound 7]", "values": [{"measurement": "RA % (0.4 mM), residual GTase activity of PBP1b", "setting": "E. coli PBP1b [1]; [4]", "value": "12.5 ± 4.4", "unit": "%"}, {"measurement": "RA % (0.8 mM), residual GTase activity of PBP1b", "setting": "E. coli PBP1b [1]; [4]", "value": "1.5 ± 0.8", "unit": "%"}, {"measurement": "IC50", "setting": "E. coli PBP1b [1]; [5]", "value": "229 ± 17", "unit": "µM"}]}
{"compound": "CC(=O)[C@H]1CC[C@H]2[C@@H]3CCC4=CC(=O)CC[C@]4(C)[C@H]3CC[C@]12C", "note": "[Compound 12, progesterone, reference compound]", "values": [{"measurement": "Inhibition of GTase activity of PBP1b (in words)", "setting": "E. coli PBP1b [1]; concentration not given", "value": "do not inhibit"}, {"measurement": "remaining activity at 800 µM", "setting": "E. coli PBP1b [1]; [4]", "value": "98 ± 1", "unit": "%"}]}
{"compound": "CC(C)[C@@H](CC[C@@H](C)[C@H]1CC[C@H]2[C@@H]3[C@H](O)C[C@H]4C[C@@H](NCCCNCCCCN)CC[C@]4(C)[C@H]3CC[C@]12C)OS(=O)(=O)O", "note": "[Squalamine (1), Squalamine]", "values": [{"measurement": "RA % (0.4 mM), residual GTase activity of PBP1b", "setting": "E. coli PBP1b [1]; [4]", "value": "6 ± 2", "unit": "%"}, {"measurement": "remaining activity at 800 µM", "setting": "E. coli PBP1b [1]; [4]", "value": "1.1 ± 0.6", "unit": "%"}, {"measurement": "IC50", "setting": "E. coli PBP1b [1]; [5]", "value": "291 ± 26", "unit": "µM"}, {"measurement": "Competition with lipid II for binding to PBP1b (change of FA of the probe)", "setting": "PBP1b", "value": "able to compete; also recorded: decrease of the FA"}, {"measurement": "Direct interaction between fluorescent lipid II and compound (FA)", "setting": "[2]", "value": "no significant interaction"}, {"measurement": "MIC", "setting": "S. aureus", "value": "~ 3 µg/mL"}, {"measurement": "MIC", "setting": "E. coli", "value": "~ 3 µg/mL"}]}
